According to PubChem BioAssay AID2060509 (Molecular Pharmacology Branch, DTP, NCI, 2025):

Test system: 485176-168-R4-J1-PDC spheroids with HUVEC/MSC, viability
Assay: Anticancer human tumor 485176-168-R4-J1-PDC patient-derived pancreatic adenocarcinoma cell line growth inhibition [GQUAD]
Settings: for IC50: curve of first compound; for viability, T/C: stronger effect = lower value
Method in brief: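 Multi-cell-type spheroids of tumor cells with HUVEC and mesenchymal stem cells, treated with drug combinations. Concentrations descend in half-log steps from near clinical Cmax, or from 10 microM where Cmax is unknown; viability read-out.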

[1] = second compound 0.0316 µM, first compound 0.0316 µM
[2] = second compound 0.0316 µM, first compound 0.316 µM
[3] = second compound 0.1 µM, first compound 0.0316 µM
[4] = second compound 0.1 µM, first compound 0.316 µM
[5] = second compound 0.316 µM, first compound 0.0316 µM
[6] = second compound 0.316 µM, first compound 0.316 µM
[7] = second compound 1 µM, first compound 0.0316 µM
[8] = second compound 1 µM, first compound 0.316 µM
[9] = second compound 3.16 µM, first compound 0.0316 µM
[10] = second compound 3.16 µM, first compound 0.316 µM
[11] = second compound 10 µM, first compound 0.0316 µM
[12] = second compound 10 µM, first compound 0.316 µM
[13] = second compound 0.0316 µM, first compound 0.1 µM
[14] = second compound 0.0316 µM, first compound 1 µM
[15] = second compound 0.0316 µM, first compound 3.16 µM
[16] = second compound 0.0316 µM, first compound 10 µM
[17] = second compound 0.1 µM, first compound 0.1 µM
[18] = second compound 0.1 µM, first compound 1 µM
[19] = second compound 0.1 µM, first compound 3.16 µM
[20] = second compound 0.1 µM, first compound 10 µM
[21] = second compound 0.316 µM, first compound 0.1 µM
[22] = second compound 0.316 µM, first compound 1 µM
[23] = second compound 0.316 µM, first compound 3.16 µM
[24] = second compound 0.316 µM, first compound 10 µM
[25] = second compound 1 µM, first compound 0.1 µM
[26] = second compound 1 µM, first compound 1 µM
[27] = second compound 1 µM, first compound 3.16 µM
[28] = second compound 1 µM, first compound 10 µM
[29] = second compound 3.16 µM, first compound 0.1 µM
[30] = second compound 3.16 µM, first compound 1 µM
[31] = second compound 3.16 µM, first compound 3.16 µM
[32] = second compound 3.16 µM, first compound 10 µM
[33] = second compound 10 µM, first compound 0.1 µM
[34] = second compound 10 µM, first compound 1 µM
[35] = second compound 10 µM, first compound 3.16 µM
[36] = second compound 10 µM, first compound 10 µM
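Note: spheroids exposed to compounds for seven days before readout.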
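Throughout, for viability, T/C: percent viability relative to DMSO vehicle control wells as 100%.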

Cc1[nH]c2ccccc2c1CCNCc1ccc(/C=C/C(=O)NO)cc1 + Cc1[nH]c2ccc(F)cc2c1-c1nc2c3cccnc3c3ncccc3c2[nH]1
IC50 (second compound 0.0316 µM): 158 nM | IC50 (second compound 0.1 µM): 163 nM | IC50 (second compound 0.316 µM): 170 nM | IC50 (second compound 1 µM): 164 nM | IC50 (second compound 3.16 µM): 129 nM | IC50 (second compound 10 µM): 150 nM | viability, T/C (second compound 0.0316 µM, first compound 0.000999 µM): 99.1% | viability, T/C (second compound 0.0316 µM, first compound 0.00316 µM): 106% | viability, T/C (second compound 0.0316 µM, first compound 0.00999 µM): 96.3% | viability, T/C [1]: 97% | viability, T/C (second compound 0.0316 µM, first compound 0.0999 µM): 77.1% | viability, T/C [2]: 9.63% | viability, T/C (second compound 0.1 µM, first compound 0.000999 µM): 105% | viability, T/C (second compound 0.1 µM, first compound 0.00316 µM): 104% | viability, T/C (second compound 0.1 µM, first compound 0.00999 µM): 89.5% | viability, T/C [3]: 89% | viability, T/C (second compound 0.1 µM, first compound 0.0999 µM): 78.7% | viability, T/C [4]: 15.7% | viability, T/C (second compound 0.316 µM, first compound 0.000999 µM): 103% | viability, T/C (second compound 0.316 µM, first compound 0.00316 µM): 89.9% | viability, T/C (second compound 0.316 µM, first compound 0.00999 µM): 80% | viability, T/C [5]: 82.4% | viability, T/C (second compound 0.316 µM, first compound 0.0999 µM): 81.3% | viability, T/C [6]: 15.3% | viability, T/C (second compound 1 µM, first compound 0.000999 µM): 82.4% | viability, T/C (second compound 1 µM, first compound 0.00316 µM): 89.7% | viability, T/C (second compound 1 µM, first compound 0.00999 µM): 95% | viability, T/C [7]: 89.3% | viability, T/C (second compound 1 µM, first compound 0.0999 µM): 72.8% | viability, T/C [8]: 19.7% | viability, T/C (second compound 3.16 µM, first compound 0.000999 µM): 79.5% | viability, T/C (second compound 3.16 µM, first compound 0.00316 µM): 93% | viability, T/C (second compound 3.16 µM, first compound 0.00999 µM): 80% | viability, T/C [9]: 74.3% | viability, T/C (second compound 3.16 µM, first compound 0.0999 µM): 61% | viability, T/C [10]: 15.5% | viability, T/C (second compound 10 µM, first compound 0.000999 µM): 85.8% | viability, T/C (second compound 10 µM, first compound 0.00316 µM): 93.7% | viability, T/C (second compound 10 µM, first compound 0.00999 µM): 88.6% | viability, T/C [11]: 68.4% | viability, T/C (second compound 10 µM, first compound 0.0999 µM): 73.2% | viability, T/C [12]: 18.8%

C=CCn1c(=O)c2cnc(Nc3ccc(N4CCN(C)CC4)cc3)nc2n1-c1cccc(C(C)(C)O)n1 + CN(C)c1ccc(Nc2c3ccc(NC(=O)CCN4CCCC4)cc3nc3cc(NC(=O)CCN4CCCC4)ccc23)cc1
IC50 (second compound 0.0316 µM): 554 nM | IC50 (second compound 0.1 µM): 544 nM | IC50 (second compound 0.316 µM): 344 nM | IC50 (second compound 1 µM): 450 nM | IC50 (second compound 3.16 µM): 507 nM | IC50 (second compound 10 µM): 459 nM | viability, T/C [1]: 98.2% | viability, T/C [13]: 89.9% | viability, T/C [2]: 79.2% | viability, T/C [14]: 19.5% | viability, T/C [15]: 7.62% | viability, T/C [16]: 4.64% | viability, T/C [3]: 101% | viability, T/C [17]: 88.2% | viability, T/C [4]: 76% | viability, T/C [18]: 21.3% | viability, T/C [19]: 8.2% | viability, T/C [20]: 4.88% | viability, T/C [5]: 116% | viability, T/C [21]: 93.7% | viability, T/C [6]: 53.8% | viability, T/C [22]: 17.2% | viability, T/C [23]: 6.62% | viability, T/C [24]: 4.69% | viability, T/C [7]: 88.7% | viability, T/C [25]: 84.9% | viability, T/C [8]: 62.5% | viability, T/C [26]: 21.5% | viability, T/C [27]: 10.6% | viability, T/C [28]: 4.67% | viability, T/C [9]: 93.1% | viability, T/C [29]: 92.8% | viability, T/C [10]: 71.8% | viability, T/C [30]: 18.2% | viability, T/C [31]: 12.4% | viability, T/C [32]: 4.45% | viability, T/C [11]: 84.4% | viability, T/C [33]: 75.1% | viability, T/C [12]: 62.5% | viability, T/C [34]: 26.4% | viability, T/C [35]: 9.3% | viability, T/C [36]: 6.12%

CC1COCCN1c1cc(-c2ccnn2C)c2ccnc(-c3ccn[nH]3)c2n1 (stereo unspecified) + Cc1[nH]c2ccc(F)cc2c1-c1nc2c3cccnc3c3ncccc3c2[nH]1
IC50 (second compound 0.0316 µM): 62 nM | IC50 (second compound 0.1 µM): 85.4 nM | IC50 (second compound 0.316 µM): 77.1 nM | IC50 (second compound 1 µM): 57.2 nM | IC50 (second compound 3.16 µM): 64.2 nM | IC50 (second compound 10 µM): 69.8 nM | viability, T/C [1]: 71.8% | viability, T/C [13]: 34.2% | viability, T/C [2]: 19.2% | viability, T/C [14]: 10.6% | viability, T/C [15]: 10.7% | viability, T/C [16]: 11.7% | viability, T/C [3]: 60.5% | viability, T/C [17]: 48.3% | viability, T/C [4]: 16.8% | viability, T/C [18]: 10.9% | viability, T/C [19]: 11.1% | viability, T/C [20]: 13.2% | viability, T/C [5]: 67% | viability, T/C [21]: 45% | viability, T/C [6]: 18.7% | viability, T/C [22]: 10.4% | viability, T/C [23]: 12.3% | viability, T/C [24]: 11.3% | viability, T/C [7]: 61.1% | viability, T/C [25]: 39.5% | viability, T/C [8]: 19.1% | viability, T/C [26]: 10.3% | viability, T/C [27]: 10.6% | viability, T/C [28]: 9.82% | viability, T/C [9]: 64.9% | viability, T/C [29]: 40.6% | viability, T/C [10]: 15.8% | viability, T/C [30]: 9.36% | viability, T/C [31]: 11.8% | viability, T/C [32]: 12% | viability, T/C [11]: 70.3% | viability, T/C [33]: 40.7% | viability, T/C [12]: 18.2% | viability, T/C [34]: 10.9% | viability, T/C [35]: 11.2% | viability, T/C [36]: 11.4%
